By IC50 is commonly meant the concentration needed to halve the response being measured. By melting point is commonly meant the temperature, or range, at which the solid turns liquid.

The target in data set [1] is T1, recombinant human Cox-1 (r-hu Cox1) (Homo sapiens, UniProt P23219).
T1 construct: made in house; host or cells: baculovirus/Sf9 insect cells (microsomes)
Briefly: Recombinant human PGHS-1 enzyme assay (RHUCX1). It counts as biochemical. To be noted: for inhibition at 100 µM / inhibition at 10 µM / inhibition at 1 µM: read-out: RHUCX1 % Inh. at Dose. On the procedure: (§1) To compare the mean responses of the treatment groups, analysis of variance was applied. Percent inhibition values were determined by comparing the individual treatment mean values to the mean of the control group. Linear regression was used to estimate IC50's/ED50's in appropriate assays.
(§2) EIA reagents for prostaglandin determination were purchased from Perseptive Diagnostics, (Cambridge, Mass.). Prostaglandin E2 (PGE2) levels in lavage fluids were determined after the samples were dried under nitrogen and reconstituted with assay buffer. PGE2 levels in enzyme assays or cell culture media were measured against standards prepared in the same milieu. The immunoassays were conducted as recommended by the manufacturer. The EIA was conducted in 96 well microtiter plates (Nunc Roskilde, Denmark) and optical density was measured using a microplate reader (Vmax, Molecular Devices Corp., Menlo Park, Calif.).
(§3) Inhibition of prostaglandin biosynthesis in vitro was evaluated using recombinant human Cox-1 (r-hu Cox1) and Cox-2 (r-hu Cox-2) enzyme assays. […] The reaction was allowed to run for 2.5 minutes at room temperature prior to quenching with HCl and neutralization with NaOH. PGE2 production in the presence and absence of the drug was determined by EIA analysis. The EIA was conducted in 96 well microtiter plates (Nunc Roskilde, Denmark) and optical density was measured using a microplate reader (Vmax, Molecular Devices Corp., Menlo Park, Calif.). EIA reagents for prostaglandin determination were purchased from Perseptive Diagnostics (Cambridge, Mass.). PGE2 levels were measured against standards prepared in the same milieu. The immunoassays were conducted as recommended by the manufacturer.

The target of data set [2] is T2, recombinant human Cox-2 (r-hu Cox-2) (Homo sapiens, UniProt P35354).
T2 construct: made in house; host or cells: baculovirus/Sf9 insect cells (microsomes)
T2 sequence (P35354 18-604): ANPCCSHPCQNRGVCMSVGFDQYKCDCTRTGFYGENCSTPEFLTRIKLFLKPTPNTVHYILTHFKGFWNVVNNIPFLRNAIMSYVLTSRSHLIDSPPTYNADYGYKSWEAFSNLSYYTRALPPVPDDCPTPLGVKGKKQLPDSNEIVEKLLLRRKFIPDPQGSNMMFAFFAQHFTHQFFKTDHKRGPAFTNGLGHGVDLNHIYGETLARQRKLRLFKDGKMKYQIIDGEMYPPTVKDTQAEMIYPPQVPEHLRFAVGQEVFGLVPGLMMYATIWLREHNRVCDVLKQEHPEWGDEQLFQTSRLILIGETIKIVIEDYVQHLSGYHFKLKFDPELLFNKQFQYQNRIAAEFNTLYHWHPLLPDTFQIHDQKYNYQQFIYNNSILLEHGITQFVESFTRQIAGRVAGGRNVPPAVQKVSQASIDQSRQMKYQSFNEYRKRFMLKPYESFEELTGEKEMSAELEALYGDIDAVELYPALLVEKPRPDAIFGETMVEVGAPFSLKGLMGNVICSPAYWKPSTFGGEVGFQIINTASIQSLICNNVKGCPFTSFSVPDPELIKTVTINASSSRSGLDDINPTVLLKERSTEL
Briefly: Recombinant human PGHS-2 enzyme assay (RHUCX2). It counts as biochemical. As to conditions: for IC50: read-out: RHUCX2 IC50 (parenthetical value). As to the method: as §1, §2, §3

The mark [3] stands for this setting: 0.1 μM, read-out: RHUCX2 % Inh. at Dose.
The mark [4] stands for this setting: read-out: RHUCX2 % Inh. at Dose.
Where [5] appears, read: 0.01 μM, read-out: RHUCX2 % Inh. at Dose.

T1 sequence (P23219 24-599): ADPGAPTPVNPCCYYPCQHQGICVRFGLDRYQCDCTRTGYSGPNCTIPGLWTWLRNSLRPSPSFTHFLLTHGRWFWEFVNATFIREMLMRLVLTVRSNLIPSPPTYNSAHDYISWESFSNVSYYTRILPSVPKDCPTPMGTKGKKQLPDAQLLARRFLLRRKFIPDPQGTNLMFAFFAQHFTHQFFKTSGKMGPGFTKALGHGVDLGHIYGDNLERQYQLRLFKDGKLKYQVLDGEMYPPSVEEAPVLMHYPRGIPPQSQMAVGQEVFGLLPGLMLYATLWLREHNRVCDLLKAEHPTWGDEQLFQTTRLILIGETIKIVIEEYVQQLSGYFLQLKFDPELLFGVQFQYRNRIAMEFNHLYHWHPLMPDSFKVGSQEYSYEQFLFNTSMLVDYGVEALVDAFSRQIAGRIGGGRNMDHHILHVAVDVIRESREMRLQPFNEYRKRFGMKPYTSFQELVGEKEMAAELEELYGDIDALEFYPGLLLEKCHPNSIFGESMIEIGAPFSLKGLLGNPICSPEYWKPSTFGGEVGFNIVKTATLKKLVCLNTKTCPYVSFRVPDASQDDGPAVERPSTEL

Take `CC(C)=CCCOc1c(-c2ccc(S(C)(=O)=O)cc2)cnn(-c2cccc(Cl)c2)c1=O` [Example 426, 2-(3-Chlorophenyl)-4-(4-methyl-3-pentenyloxy)-5-[4-(methylsulfonyl)phenyl]-3(2H)-pyridaznone]: the melting point fell in the range of 110 to 111 °C. In addition, the inhibition at 100 µM in data set [1] (100 μM) worked out at 1%. Also, the half-maximal inhibitory concentration (IC50) in data set [2] is 57 nM.

`CS(=O)(=O)c1ccc(-c2cnn(-c3cc(Cl)cc(Cl)c3)c(=O)c2-c2ccc(F)cc2)cc1` [Example 188, 2-(3,5-Dichlorophenyl)-4-(4-fluorophenyl)-5-[4-(methylsulfonyl)phenyl]-3-(2H)-pyridazinone] returned a melting point of 289 to 294 °C. The inhibition at 100 µM in data set [1] (100 μM) turned out to be 18%. Also, the IC50 in data set [2] is 526 nM.

For `CS(=O)(=O)c1ccc(-c2cnn(-c3cccc(Cl)c3)c(=O)c2OCc2ccccc2)cc1` [Example 374, 2-(3-Chlorophenyl)-4-(benzyloxy)-5-[4-(methylsulfonyl)phenyl]-3(2H)-pyridazinone], the melting point fell in the range of 110 to 113 °C. Further, the inhibition at 100 µM in data set [1] (100 μM) is 2%. Moreover, in data set [2], the IC50 amounted to 20 nM.

Take `C=CCC(C)COc1c(-c2ccc(S(C)(=O)=O)cc2)cnn(-c2ccc(F)cc2)c1=O` (stereo not drawn) [Example 434, 2-(4-Fluorophenyl)-4-(2-methyl-4-pentenyl-1-oxy)-5-[4-(methylsulfonyl)phenyl]-3(2H)-pyridazinone]: the melting point was 106 to 107 °C. The inhibition at 100 µM in data set [1] (100 μM) turned out to be 0%. Further, the IC50 in data set [2] was 81 nM.

Take `CS(=O)(=O)c1ccc(-c2cnn(Cc3c(F)c(F)c(F)c(F)c3F)c(=O)c2-c2ccc(F)cc2)cc1` [Example 45, 2-(2,3,4,5,6-Pentafluorobenzyl)-4-(4-fluorophenyl)-5-[4-(methylsulfonyl)phenyl]-3(2H)-pyridazinone]: the melting point fell in the range of 115 to 116 °C. Moreover, in data set [1] (100 μM), the inhibition at 100 µM was 5%. The inhibition at 0.1 µM in data set [2] (setting [3]) is 63%. The inhibition at 1 µM in data set [2] (setting [4]) amounted to 85%.

Turning to `CS(=O)(=O)c1ccc(-c2cnn(Cc3ccccc3)c(=O)c2-c2ccc(F)c(Cl)c2)cc1` [Example 52, 2-Benzyl-4-(3-chloro-4-fluorophenyl)-5-[4-(methylsulfonyl)phenyl]-3(2H)-pyridazinone], the melting point lay in the range of 134 to 136 °C. For the same molecule, the inhibition at 10 µM in data set [1] was 32%. Also, the inhibition at 0.1 µM in data set [2] (setting [3]) was 83%. Besides, the inhibition at 1 µM in data set [2] (setting [4]) came out at 99%.

The molecule `CS(=O)(=O)c1ccc(-c2cnn(-c3ccc(F)c(F)c3)c(=O)c2C#Cc2ccccc2)cc1` [Example 254, 2-(3,4-Difluorophenyl)-4-(phenylethynyl)-5-[4-(methylsulfonyl)phenyl]-3(2H)-pyridazinone] returned a melting point of 211 to 213 °C. Further, in data set [1] (100 μM), the inhibition at 100 µM stood at 7%. Also, the inhibition at 0.1 µM in data set [2] (setting [3]) was 48%. In data set [2] (setting [4]), the inhibition at 1 µM is 84%.

`CS(=O)(=O)c1ccc(-c2cnn(C3Cc4ccccc4C3)c(=O)c2-c2ccc(F)cc2)cc1` [Example 128, 2-(2,3-Dihydro-1H-inden-2-yl)-4-(4-fluorophenl)-5-[4-(methylsulfonyl)phenyl]-3(2H)-pyridazinone] registered a melting point of 97 to 100 °C. In data set [1] (100 μM), the inhibition at 100 µM came out at 14%. Moreover, the IC50 in data set [2] is 477 nM.

Molecule `CS(=O)(=O)c1ccc(-c2cnn(CC=C(Cl)Cl)c(=O)c2-c2ccc(F)cc2)cc1` [Example 35] showed a melting point of 150 to 152 °C. For the same molecule, in data set [1], the inhibition at 10 µM stood at 34%. The IC50 in data set [2] amounted to 17 nM.

`CS(=O)(=O)c1ccc(-c2cnn(-c3ccc(F)cc3)c(=O)c2Cc2ccccc2)cc1` [Example 230, 2-(4-Fluorophenyl)-4-benzyl-5-[4-(methylsulfonyl)phenyl]-3(2H)-pyridazinone] came in with a melting point of 180 to 182 °C. For the same molecule, the inhibition at 100 µM in data set [1] (100 μM) stood at 4%. Besides, the IC50 in data set [2] is 215 nM.

The molecule `CS(=O)(=O)c1ccc(-c2cnn(-c3cccc(Cl)c3)c(=O)c2Oc2cccc(F)c2)cc1` [Example 411, 2-(3-Chlorophenyl)-4-(3-fluorophenoxy)-5-[4-(methylsulfonyl)phenyl]-3(2H)-pyridazinone] displayed a melting point of 178 to 180 °C. In data set [1], the inhibition at 1 µM is 81% and the inhibition at 10 µM came out at 96%. The IC50 in data set [2] stood at 9 nM.

Molecule `CS(=O)(=O)c1ccc(-c2cnn(-c3cccc(Cl)c3)c(=O)c2Cc2ccc(F)cc2)cc1` [Example 369, 2-(3-Chlorophenyl)-4-(4-fluorobenzyl)-5-[4-(methylsulfonyl)phenyl]-3(2H)-pyridazinone] displayed a melting point of 183 to 185 °C. In data set [1] (100 μM), the inhibition at 100 µM amounted to 0%. For the same molecule, the inhibition at 0.1 µM in data set [2] (setting [3]) is 48%. In data set [2] (setting [4]), the inhibition at 1 µM came out at 70%.

Molecule `Cc1ccc(-c2c(-c3ccc(S(N)(=O)=O)cc3)cnn(-c3ccc(F)c(F)c3)c2=O)cc1F` [Example 386, 2-(3,4-Difluorophenyl)-4-(3-fluoro-4-methylphenyl)-5-[4-(aminosulfonyl)phenyl]-3(2H)-pyridazinone] registered a melting point of 198 to 200 °C. Also, the inhibition at 1 µM in data set [1] was found to be 47%. In addition, in data set [1] (100 μM), the inhibition at 100 µM was 58%. In addition, in data set [2] (setting [5]), the inhibition at 0.01 µM came out at 58%. Besides, the inhibition at 0.1 µM in data set [2] (setting [3]) worked out at 63%. Further, the inhibition at 1 µM in data set [2] (setting [4]) worked out at 83%.

`CC(C)CCCc1c(-c2ccc(S(C)(=O)=O)cc2)cnn(-c2ccc(F)cc2)c1=O` [Example 420, 2-(4-Fluorophenyl)-4-(4-methylpentyl)-5-[4-(methylsulfonyl)phenyl]-3(2H)-pyridazinone] returned a melting point of 112 to 115 °C. Further, the inhibition at 100 µM in data set [1] (100 μM) came to 29%. For the same molecule, the IC50 in data set [2] worked out at 323 nM.

`Cc1ccc(-c2c(-c3ccc(S(C)(=O)=O)cc3)cnn(-c3ccc(F)c(F)c3)c2=O)cc1` [Example 234] returned a melting point of 190 to 192 °C. Further, in data set [1] (100 μM), the inhibition at 100 µM is 0%. Also, the IC50 in data set [2] is 328 nM.

With `CON=C(Cn1ncc(-c2ccc(S(C)(=O)=O)cc2)c(-c2ccc(F)cc2)c1=O)c1ccccc1` [Example 443, 2-(2-Methoxyimino-2-phenylethyl)-4-(4-fluorophenyl)-5-[4-(methylsulfonyl)phenyl]-3(2H)-pyridazinone], the melting point fell in the range of 95 to 99 °C. In addition, the inhibition at 100 µM in data set [1] (100 μM) amounted to 35%. For the same molecule, the inhibition at 0.01 µM in data set [2] (setting [5]) turned out to be 74%. Moreover, the inhibition at 0.1 µM in data set [2] (setting [3]) stood at 86%.

The molecule `CC(C)CCCc1c(-c2ccc(S(C)(=O)=O)cc2)cnn(-c2ccc(F)c(F)c2)c1=O` [Example 444, 2-(3,4-Difluorophenyl)-4-(4-methylpentyl)-5-[4-(methylsulfonyl)phenyl]-3(2H)-pyridazinone] gave a melting point of 111 to 113 °C. The inhibition at 100 µM in data set [1] (100 μM) was found to be 0%. Moreover, the inhibition at 0.1 µM in data set [2] (setting [3]) worked out at 62%. The inhibition at 1 µM in data set [2] (setting [4]) was found to be 83%. In data set [2] (10 μM, read-out: RHUCX2 % Inh. at Dose), the inhibition at 10 µM amounted to 14%.

`NS(=O)(=O)c1ccc(-c2cnn(-c3ccc(F)cc3)c(=O)c2Cc2cccc(F)c2)cc1` [Example 253, 2-(4-Fluorophenyl)-4-(3-fluorobenzyl)-5-[4-(aminosulfonyl)phenyl]-3(2H)-pyridazinone] came in with a melting point of 199 to 202 °C. Also, in data set [1], the inhibition at 10 µM turned out to be 29%. Besides, the inhibition at 100 µM in data set [1] (100 μM) is 77%. Further, in data set [2], the IC50 was 272 nM.

In the case of “2-(2-Hexyl)-4-(4-fluorophenyl)-5-[4-(methylsulfonyl)phenyl]-3(2H)-pyridazinone [Example 118]”, the “RHUCX1 % Inh. at Dose (μM)” value in data set [1] (100 μM) is listed as 31 @ 100%. Moreover, the “RHUCX2 % Inh. at Dose (μM)” value in data set [2] (0.01 μM) is recorded as 17 @ 0.01%; in data set [2] (0.1 μM) it was 72 @ 0.1%.
